Calls of active or inactive are those of the source. The calls are words filed in the database; no cut-off is given here.
Experiments:
W2 = experiment: (§1) Induction of apoptosis in mouse W2 cells assessed as cell death after 48 hrs by MTT assay; assay type: functional
D3 [1] = experiment: Induction of apoptosis in mouse apoptosis-resistant D3 cells assessed as cell growth at 12 uM after 72 hrs by MTT assay; assay type: functional, cell-based
D3 [2] = experiment: Induction of apoptosis in mouse apoptosis-resistant D3 cells assessed as cell growth at 12 uM after 48 hrs by MTT assay; assay type: functional, cell-based
[3] = Induction of apoptosis in apoptosis-resistant mouse D3 cells assessed as cell growth after 48 hrs by MTT assay; assay type: functional
[4] = as §1; assay type: functional

SMILES | Activity (W2) | Activity (D3 [1]) | Activity (D3 [2]) | Activity [3] [%] | Activity [4] [%]
C=C1CC/C=C(\C)CC[C@H](/C(=C/C=C/C(C)(C)O)COC(C)=O)[C@H]1C(=O)OC | Active |  |  |  | 
C=C1CC/C=C(\C)CC[C@H](/C(=C\CC=C(C)C)COC(C)=O)[C@H]1C(=O)OC | Active |  |  |  | 
C=C1CC/C=C(\C)CC[C@@H]2C(C(CC3OC3(C)C)OC(C)=O)=CO[C@H](OC(C)=O)[C@@H]12 (some centres not stated) |  | Active | Active | 61 | 50
C=C1CC/C=C(\C)CC[C@H](/C(=C\C=C\C(C)(C)O)COC(C)=O)[C@H]1C(OC)OC | Active |  |  |  | 

Source: ChEMBL document CHEMBL1141312, “Induction of apoptosis by diterpenes from the soft coral Xenia elongata” (2007)
